Data as given in patent US12209081B2 (Katholieke Universiteit Leuven, priority 2020, dated 2025).

Biological target: mouse TRPM3α2 (mTRPM3) ion channel (Mus musculus (Mouse), UniProt J9SQF3)
Assay: TRPM3 ion channel driven Ca2+ uptake, Fluo-4 AM assay, mTRPM3alpha2 overexpressing flip-in HEK293 cells stimulated with pregnenolone sulfate
Type: cell-based
Details: PS (50 μM) stimulated, cpds. 608-666
Summary of the method: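 Read-out is Ca2+ influx via Fluo-4 AM fluorescence at 485/535 nm, taken right after seeding ~2000 cells/well onto compound with 50 μM PS. Inhibition computed from RFU between vehicle-stimulated and positive-control-inhibitor wells; cells were mTRPM3α2-overexpressing flip-in HEK293.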

mouse TRPM3α2 (mTRPM3) ion channel, sequence (J9SQF3 other isoform, or with tags, fused parts or gaps): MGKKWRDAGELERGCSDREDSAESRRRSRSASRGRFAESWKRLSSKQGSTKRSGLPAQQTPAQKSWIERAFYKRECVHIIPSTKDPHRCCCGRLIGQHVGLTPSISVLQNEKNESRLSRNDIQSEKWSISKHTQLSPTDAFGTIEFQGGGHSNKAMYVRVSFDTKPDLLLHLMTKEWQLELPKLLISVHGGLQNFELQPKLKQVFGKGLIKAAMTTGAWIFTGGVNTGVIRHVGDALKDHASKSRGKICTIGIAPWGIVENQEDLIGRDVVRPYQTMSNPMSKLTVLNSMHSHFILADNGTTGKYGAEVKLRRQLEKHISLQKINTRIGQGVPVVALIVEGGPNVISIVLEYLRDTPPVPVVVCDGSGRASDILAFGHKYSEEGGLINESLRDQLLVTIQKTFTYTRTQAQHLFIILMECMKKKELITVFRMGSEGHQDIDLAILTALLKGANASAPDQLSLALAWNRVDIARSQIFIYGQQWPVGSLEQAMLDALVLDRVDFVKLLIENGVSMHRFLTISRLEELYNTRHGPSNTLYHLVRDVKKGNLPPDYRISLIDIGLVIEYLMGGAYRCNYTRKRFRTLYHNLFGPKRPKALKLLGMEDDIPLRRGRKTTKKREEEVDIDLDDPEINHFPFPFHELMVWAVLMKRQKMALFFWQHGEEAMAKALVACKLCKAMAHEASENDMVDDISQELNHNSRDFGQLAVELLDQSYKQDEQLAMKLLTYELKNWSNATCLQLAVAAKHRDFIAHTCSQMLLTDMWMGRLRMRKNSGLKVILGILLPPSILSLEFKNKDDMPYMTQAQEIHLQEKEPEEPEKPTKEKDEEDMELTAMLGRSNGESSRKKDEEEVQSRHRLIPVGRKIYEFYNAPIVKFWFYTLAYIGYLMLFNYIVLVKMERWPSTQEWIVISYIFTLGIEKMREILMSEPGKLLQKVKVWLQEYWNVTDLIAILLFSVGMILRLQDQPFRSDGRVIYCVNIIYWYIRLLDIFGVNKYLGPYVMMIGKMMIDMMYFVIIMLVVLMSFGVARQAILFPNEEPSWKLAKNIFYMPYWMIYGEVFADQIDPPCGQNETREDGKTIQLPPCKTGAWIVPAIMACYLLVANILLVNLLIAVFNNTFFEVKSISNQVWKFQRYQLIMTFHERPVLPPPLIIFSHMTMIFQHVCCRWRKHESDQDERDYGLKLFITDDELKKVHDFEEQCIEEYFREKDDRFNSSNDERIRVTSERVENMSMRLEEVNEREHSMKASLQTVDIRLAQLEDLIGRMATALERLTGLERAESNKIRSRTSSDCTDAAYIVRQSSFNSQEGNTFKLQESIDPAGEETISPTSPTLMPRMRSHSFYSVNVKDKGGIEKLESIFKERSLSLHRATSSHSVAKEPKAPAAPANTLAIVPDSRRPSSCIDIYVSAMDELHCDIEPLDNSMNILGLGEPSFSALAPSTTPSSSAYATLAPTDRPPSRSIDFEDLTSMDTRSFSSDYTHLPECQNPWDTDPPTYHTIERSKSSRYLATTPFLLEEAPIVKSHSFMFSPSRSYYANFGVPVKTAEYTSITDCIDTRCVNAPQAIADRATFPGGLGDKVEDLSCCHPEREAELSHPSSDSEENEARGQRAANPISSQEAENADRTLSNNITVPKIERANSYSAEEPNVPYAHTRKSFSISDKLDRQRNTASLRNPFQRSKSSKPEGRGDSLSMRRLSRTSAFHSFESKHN

IC50, < 1000 nM:
COc1ncccc1COc1ccc2oc(C)c(C(=O)NC3COCC3(F)F)c2c1 (centres unmarked) [compound 665, N-(4,4-difluorotetrahydrofuran-3-yl)-5-((2-methoxypyridin-3-yl)methoxy)-2-methylbenzofuran-3-carboxamide]
Cc1ncsc1COc1ccc2oc(C)c(C(=O)NCC(F)(F)F)c2c1 [compound 666, 2-methyl-5-((4-methylthiazol-5-yl)methoxy)-N-(2,2,2-trifluoroethyl)benzofuran-3-carboxamide]

Same assay, conditions: PS (50 μM) stimulated, cpds. 667-751

IC50, < 1000 nM:
Cc1cnn(C)c1COc1ccc2oc(C)c(C(=O)N[C@@H](CO)C(N)=O)c2c1 [compound 668, (S)-N-(1-Amino-3-hydroxy-1-oxopropan-2-yl)-5-((1,4-dimethyl-1H-pyrazol-5-yl)methoxy)-2-methylbenzofuran-3-carboxamide]
Cc1oc2ccc(OCc3c(Cl)cnn3C)cc2c1C(=O)N[C@@H](CO)C(N)=O [compound 670, (S)-N-(1-Amino-3-hydroxy-1-oxopropan-2-yl)-5-((4-chloro-1-methyl-1H-pyrazol-5-yl)methoxy) -2-methylbenzofuran-3-carboxamide]
Cc1oc2ccc(OCc3c(Cl)cnn3C(C)C)cc2c1C(=O)N[C@@H](CO)C(N)=O [compound 672, (S)-N-(1-amino-3-hydroxy-1-oxopropan-2-yl)-5-((4-chloro-1-isopropyl-1H-pyrazol-5-yl)methoxy)-2-methylbenzofuran-3-carboxamide]
Cc1oc2ccc(OCc3ccnn3C(C)C)cc2c1C(=O)N[C@@H](CO)C(N)=O [compound 676, (S)-N-(1-amino-3-hydroxy-1-oxopropan-2-yl)-5-((1-isopropyl-1H-pyrazol-5-yl)methoxy)-2-methylbenzofuran-3-carboxamide]
Cc1nc(C)c(COc2ccc3oc(C)c(C(=O)N[C@@H](CO)C(N)=O)c3c2)o1 [compound 678, (S)-N-(1-Amino-3-hydroxy-1-oxopropan-2-yl)-5-((2. 4-dimethyloxazol-5-yl)methoxy)-2-methylbenzofuran-3-carboxamide]
Cc1ncoc1COc1ccc2oc(C)c(C(=O)N[C@@H](CO)C(N)=O)c2c1 [compound 680, (S)-N-(1-Amino-3-hydroxy-1-oxopropan-2-yl)-2-methyl-5-((4-methyloxazol-5-yl)methoxy)benzofuran-3-carboxamide]
Cc1oc2ccc(OCc3cnc(C(C)C)s3)cc2c1C(=O)N[C@@H](CO)C(N)=O [compound 682, (S)-N-(1-Amino-3-hydroxy-1-oxopropan-2-yl)-5-((2-isopropylthiazol-5-yl)methoxy)-2-methylbenzofuran-3-carboxamide]
Cc1ncc(COc2ccc3oc(C)c(C(=O)NC4(C(F)F)CCC4)c3c2)s1 [compound 683, N-(1-(Difluoromethyl)cyclobutyl)-2-methyl-5-((2-methylthiazol-5-yl)methoxy)benzofuran-3-carboxamide]
Cc1cnc(COc2ccc3oc(C)c(C(=O)N[C@@H](CO)C(N)=O)c3c2)s1 [compound 684, (S)-N-(1-Amino-3-hydroxy-1-oxopropan-2-yl)-2-methyl-5-((5-methylthiazol-2-yl)methoxy)benzofuran-3-carboxamide]
Cc1oc2ccc(OCc3ccn(C)n3)cc2c1C(=O)N[C@@H](CO)C(N)=O [compound 686, (S)-N-(1-Amino-3-hydroxy-1-oxopropan-2-yl)-2-methyl-5-((1-methyl-1H-pyrazol-3-yl)methoxy)benzofuran-3-carboxamide]
Cc1oc2ccc(OCc3ccnn3CC(F)(F)F)cc2c1C(=O)N[C@@H](CO)C(N)=O [compound 688, (S)-N-(1-Amino-3-hydroxy-1-oxopropan-2-yl)-2-methyl-5-((1-(2,2,2-trifluoroethyl)-1H-pyrazol-5-yl)methoxy)benzofuran-3-carboxamide]
Cc1oc2ccc(OCc3ccnn3CC3CC3)cc2c1C(=O)N[C@@H](CO)C(N)=O [compound 690, (S)-N-(1-amino-3-hydroxy-1-oxopropan-2-yl)-5-((1-(cyclopropylmethyl)-1H-pyrazol-5-yl)methoxy)-2-methylbenzofuran-3-carboxamide]
Cc1oc2ccc(OCc3cn(C)nc3C(F)(F)F)cc2c1C(=O)N[C@@H](CO)C(N)=O [compound 692, (S)-N-(1-Amino-3-hydroxy-1-oxopropan-2-yl)-2-methyl-5-((1-methyl-3-(trifluoromethyl)-1H -pyrazol-4-yl)methoxy)benzofuran-3-carboxamide]
Cc1oc2ccc(OCc3scnc3C(F)(F)F)cc2c1C(=O)N[C@@H](CO)C(N)=O [compound 694, (S)-N-(1-Amino-3-hydroxy-1-oxopropan-2-yl)-2-methyl-5-((4-(trifluoromethyl)thiazol-5-yl)methoxy)benzofuran-3-carboxamide]
Cc1oc2ccc(OCc3nccs3)cc2c1C(=O)N[C@@H](CO)C(N)=O [compound 695, (S)-N-(1-Amino-3-hydroxy-1-oxopropan-2-yl)-2-methyl-5-(thiazol-2-ylmethoxy)benzofuran-3-carboxamide]
Cc1oc2ccc(OCc3ccc(F)cn3)cc2c1C(=O)N[C@H](C(N)=O)[C@@H](C)O [compound 696, N-((2S,3R)-1-amino-3-hydroxy-1-oxobutan-2-yl)-5-((5-fluoropyridin-2-yl)methoxy)-2-methylbenzofuran-3-carboxamide]
Cc1oc2ccc(OCc3cncs3)cc2c1C(=O)N[C@@H](CO)C(N)=O [compound 697, (S)-N-(1-Amino-3-hydroxy-1-oxopropan-2-yl)-2-methyl-5-(thiazol-5-ylmethoxy)benzofuran-3-carboxamide]
Cc1oc2ccc(OCc3cnn(C)c3)cc2c1C(=O)N[C@@H](CO)C(N)=O [compound 698, (S)-N-(1-Amino-3-hydroxy-1-oxopropan-2-yl)-2-methyl-5-((1-methyl-1H-pyrazol-4-yl)methoxy)benzofuran-3-carboxamide]
Cc1ccc(COc2ccc3oc(C)c(C(=O)N[C@@H](CO)C(N)=O)c3c2)nc1 [compound 700, (S)-N-(1-Amino-3-hydroxy-1-oxopropan-2-yl)-2-methyl-5-((5-methylpyridin-2-yl)methoxy)benzofuran-3-carboxamide]
Cc1oc2ccc(OCc3cccnc3C3CC3)cc2c1C(=O)N[C@@H](CO)C(N)=O [compound 702, (S)-N-(1-Amino-3-hydroxy-1-oxopropan-2-yl)-5-((2-cyclopropylpyridin-3-yl)methoxy)-2-methylbenzofuran-3-carboxamide]
Cc1oc2ccc(OCc3ncccc3C3CC3)cc2c1C(=O)N[C@@H](CO)C(N)=O [compound 704, (S)-N-(1-Amino-3-hydroxy-1-oxopropan-2-yl)-5-((3-cyclopropylpyridin-2-yl)methoxy)-2-methylbenzofuran-3-carboxamide]
